Drawing on ChEMBL document CHEMBL1142495, “Novel D3 selective dopaminergics incorporating enyne units as nonaromatic catechol bioisosteres: synthesis, bioactivity, and mutagenesis studies” (J Med Chem, 2008), this text covers EC50 and Ki for eleven compounds.

Assay [1] has as its target T1, D(3) dopamine receptor (Homo sapiens, UniProt P35462).
Description: Intrinsic activity at human D3 receptor expressed in CHO dhfr- cells assessed as inhibition of forskolin-induced cAMP release
The target in assay [2] is D(3) dopamine receptor (Homo sapiens, UniProt P35462, D110E). The assay can be described thus: biochemical.
Description: Displacement of [3H]spiperone from human D3 D3.32E mutant receptor expressed in human HEK293 cells
The target in assay [3] is T1, D(3) dopamine receptor. The source holds these as a separate data set.
Description: Intrinsic activity at human D3 receptor expressed in CHO dhfr- cells by [3H]thymidine incorporation assay
The target of assay [4] is T1, D(3) dopamine receptor. The assay can be described thus: biochemical.
Description: Displacement of [3H]spiperone from human wild type D3 receptor expressed in human HEK293 cells
Assay [5] has as its target D(3) dopamine receptor (Homo sapiens, UniProt P35462, F345W). The assay can be described thus: biochemical.
Description: Displacement of [3H]spiperone from human D3 F6.51W mutant receptor expressed in human HEK293 cells
In assay [6] the target is T1, D(3) dopamine receptor. The assay can be described thus: biochemical. This is another data set of the same source.
Description: Displacement of [3H]spiperone from human D3 receptor expressed in CHO cells
The nature of assay [7]: Displacement of [3H]WAY100635 from 5HT1A receptor in pig cerebral cortex homogenate.
For a further assay, the target named is D(1A) dopamine receptor (Sus scrofa, UniProt P50130). The assay can be described thus: Displacement of [3H]SCH23390 from D1 receptor in pig striatal membrane. Type of assay: cell membranes, Striatum. (Displacement assays read how much labelled ligand stays bound in the presence of the test substance.)
D(1A) dopamine receptor, sequence (P50130 whole entry): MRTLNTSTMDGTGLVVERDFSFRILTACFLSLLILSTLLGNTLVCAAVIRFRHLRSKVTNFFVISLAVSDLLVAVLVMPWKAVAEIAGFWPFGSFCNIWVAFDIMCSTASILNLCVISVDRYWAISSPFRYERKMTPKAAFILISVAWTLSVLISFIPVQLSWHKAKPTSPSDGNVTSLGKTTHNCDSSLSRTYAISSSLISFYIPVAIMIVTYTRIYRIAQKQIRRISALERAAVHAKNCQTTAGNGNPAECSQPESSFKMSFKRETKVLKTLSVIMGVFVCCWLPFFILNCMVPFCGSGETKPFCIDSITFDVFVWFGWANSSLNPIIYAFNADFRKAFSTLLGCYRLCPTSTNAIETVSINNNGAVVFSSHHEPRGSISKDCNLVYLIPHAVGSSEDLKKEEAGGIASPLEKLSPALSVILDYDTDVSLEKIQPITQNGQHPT
Assay [8] concerns the target T2, D(2) dopamine receptor (Homo sapiens, UniProt P14416). The assay is described as follows: Displacement of [3H]spiperone from human D2short receptor expressed in CHO cells. It is filed as cell-based.
Assay [9] is described as follows: Displacement of [3H]ketanserin from 5HT2 receptor in pig cerebral cortex homogenate.
Assay [10] has as its target T2, D(2) dopamine receptor. The assay is described as follows: Displacement of [3H]spiperone from human D2long receptor expressed in CHO cells. Type of assay: cell-based.
The nature of assay [11]: Displacement of [3H]prazosin from adrenergic alpha1 receptor in pig cerebral cortex homogenate.
In the next assay the target is T3, D(4) dopamine receptor (Homo sapiens, UniProt P21917).
T3 sequence (P21917 whole entry): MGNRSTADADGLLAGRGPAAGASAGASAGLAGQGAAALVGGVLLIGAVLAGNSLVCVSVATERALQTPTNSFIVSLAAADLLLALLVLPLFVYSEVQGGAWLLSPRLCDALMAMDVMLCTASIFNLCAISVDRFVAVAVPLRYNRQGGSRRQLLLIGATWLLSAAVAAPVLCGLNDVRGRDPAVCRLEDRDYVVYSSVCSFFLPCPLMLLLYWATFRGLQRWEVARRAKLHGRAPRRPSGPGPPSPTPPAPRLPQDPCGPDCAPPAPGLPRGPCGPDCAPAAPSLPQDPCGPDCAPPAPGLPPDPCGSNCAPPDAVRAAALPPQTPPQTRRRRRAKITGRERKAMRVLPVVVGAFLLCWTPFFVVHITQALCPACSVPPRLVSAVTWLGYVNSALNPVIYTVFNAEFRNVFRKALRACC
The assay can be described thus: Displacement of [3H]spiperone from human D4 receptor expressed in CHO cells. It is filed as cell-based.

Structures are written as SMILES.

T2 sequence (P14416 whole entry): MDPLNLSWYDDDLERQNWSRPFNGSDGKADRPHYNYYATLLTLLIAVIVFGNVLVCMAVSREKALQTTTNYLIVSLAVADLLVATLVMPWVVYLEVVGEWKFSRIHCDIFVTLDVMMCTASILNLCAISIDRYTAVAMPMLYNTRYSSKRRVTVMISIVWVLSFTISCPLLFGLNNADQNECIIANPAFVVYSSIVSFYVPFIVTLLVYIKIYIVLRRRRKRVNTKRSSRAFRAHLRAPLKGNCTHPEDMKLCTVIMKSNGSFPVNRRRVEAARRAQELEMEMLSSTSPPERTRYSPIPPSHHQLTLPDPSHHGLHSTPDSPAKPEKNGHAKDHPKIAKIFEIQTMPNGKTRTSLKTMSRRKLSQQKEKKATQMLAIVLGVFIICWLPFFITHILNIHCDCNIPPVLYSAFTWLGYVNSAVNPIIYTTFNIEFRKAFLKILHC
T1 sequence (P35462 whole entry): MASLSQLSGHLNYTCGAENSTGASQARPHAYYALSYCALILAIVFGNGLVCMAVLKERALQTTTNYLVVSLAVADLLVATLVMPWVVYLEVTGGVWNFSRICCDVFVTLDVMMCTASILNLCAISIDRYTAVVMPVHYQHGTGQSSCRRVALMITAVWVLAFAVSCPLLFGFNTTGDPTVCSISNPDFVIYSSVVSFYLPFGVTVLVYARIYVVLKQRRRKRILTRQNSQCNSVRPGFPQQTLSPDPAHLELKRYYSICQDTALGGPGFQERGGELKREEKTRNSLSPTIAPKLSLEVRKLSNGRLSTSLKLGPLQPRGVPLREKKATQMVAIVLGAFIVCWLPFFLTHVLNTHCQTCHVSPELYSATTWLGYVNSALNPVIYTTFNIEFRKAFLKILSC
D(3) dopamine receptor (Homo sapiens, UniProt P35462, D110E), sequence (P35462 as listed by the source D110E): as the sequence (P35462 whole entry) above, with G9S, D110E counted along it
D(3) dopamine receptor (Homo sapiens, UniProt P35462, F345W), sequence (P35462 as listed by the source F345W): as the sequence (P35462 whole entry) above, with G9S, F345W counted along it

As for `C#CC1=CCC(N(CCC)CCC)CC1` (configuration not stated), the EC50 (commonly the concentration needed to bring the measured effect to its halfway point) is 7.7 nM on D(3) dopamine receptor [1] and 4.4 nM at D(3) dopamine receptor [3]. Further, the Ki – broadly, a measure of affinity in units of concentration, obtained from inhibition or displacement – at D(3) dopamine receptor [2] was more than 10000 nM; at D(3) dopamine receptor [4], 190 nM; at D(3) dopamine receptor [5], 5700 nM.

Consider `CCCNCCCCNC(=O)c1ccc(-c2ccccc2)cc1`, for which the Ki was 11000 nM on D(3) dopamine receptor [6]; 9500 nM in assay [7]; 7300 nM at D(1A) dopamine receptor; more than 100000 nM on D(2) dopamine receptor [8]; 860 nM in assay [9]; 21000 nM at D(2) dopamine receptor [10]. The results for the Ki (in assay [11]; at D(4) dopamine receptor) were 2500 nM and 6100 nM, respectively.

As to `CCCN(CCCCNC(=O)c1ccc(-c2ccccc2)cc1)C1CC=C(C#C[Si](C)(C)C)CC1` (configuration not stated), the Ki was determined as 4.4 nM on D(3) dopamine receptor [6]; 660 nM in assay [7]; 3800 nM on D(1A) dopamine receptor; 360 nM on D(2) dopamine receptor [8]; 1400 nM in assay [9]; 220 nM on D(2) dopamine receptor [10]. Further, the inhibitory constant (Ki) in assay [11] is 2200 nM; on D(4) dopamine receptor it was 69 nM.

Take `C#CC1=CCC(N(CCC)CCCCn2cc(-c3ccc(-c4ccccc4)cc3)nn2)CC1` (configuration not stated): the Ki is 1.3 nM on D(3) dopamine receptor [6]; 1500 nM on D(3) dopamine receptor [2]; 2500 nM in assay [7]; 9500 nM at D(1A) dopamine receptor; 170 nM at D(2) dopamine receptor [8]; 2700 nM in assay [9]. For the same compound, the inhibition constant (Ki) was determined as 610 nM on D(2) dopamine receptor [10]; 2.5 nM on D(3) dopamine receptor [4]; 4400 nM in assay [11]; 33 nM on D(3) dopamine receptor [5]; 190 nM on D(4) dopamine receptor. In addition, the results for the EC50 at D(3) dopamine receptor [1] and on D(3) dopamine receptor [3] were 3.1 nM and 2.6 nM, respectively.

`CC#CC1=CCC(N(CCC)CCCCn2cc(C)nn2)CC1` (configuration not stated): the Ki is 280 nM on D(3) dopamine receptor [6]; 1800 nM in [7]; more than 100000 nM on D(1A) dopamine receptor; 2100 nM at D(2) dopamine receptor [8]; 15000 nM in assay [9]; 4100 nM on D(2) dopamine receptor [10]. In addition, the Ki in assay [11] was determined as 8700 nM; on D(4) dopamine receptor it was 100 nM.

Consider `CCCN(CCC)CCCCNC(=O)c1ccc(-c2ccccc2)cc1`, for which the Ki was found to be 950 nM on D(3) dopamine receptor [6]; 2800 nM in assay [7]; 6800 nM at D(1A) dopamine receptor; 8800 nM on D(2) dopamine receptor [8]; 790 nM in assay [9]; 9700 nM at D(2) dopamine receptor [10]. For the same compound, the Ki came out at 2400 nM in assay [11] and 1400 nM at D(4) dopamine receptor.

On to `CCCN(CCCCNC(=O)c1ccc(-c2ccccc2)cc1)C1CC=C(C#Cc2ccccc2)CC1` (configuration not stated), for which the Ki at D(3) dopamine receptor [6] worked out at 300 nM; in [7] it was 5800 nM; at D(1A) dopamine receptor it was 13000 nM; on D(2) dopamine receptor [8], 4700 nM; in [9] it was 8300 nM; at D(2) dopamine receptor [10], 5500 nM. Moreover, the values for the Ki (in [11]; on D(4) dopamine receptor) were 4600 nM and 3100 nM, respectively.

Turning to `C#CC1=CCC(N(CCC)CCCCNC(=O)c2ccc(-c3ccccc3)cc2)CC1` (configuration not stated), the Ki turned out to be 230 nM in assay [7]; 2900 nM on D(1A) dopamine receptor; 460 nM in assay [9]; 510 nM in assay [11]; 4.3 nM at D(4) dopamine receptor.

Regarding `CCCN(CCCCNC(=O)c1ccc(-c2ccccc2)cc1)C1CCCCC1`, the Ki at D(3) dopamine receptor [6] was 140 nM; in assay [7] it was 1200 nM; at D(1A) dopamine receptor, 4600 nM; at D(2) dopamine receptor [8], 6300 nM; in [9] it was 890 nM; at D(2) dopamine receptor [10], 4700 nM. The inhibition constant Ki came out at 1100 nM in [11] and 670 nM at D(4) dopamine receptor.

Turning to `CCCN(CCCCn1cc(-c2ccc(-c3ccccc3)cc2)nn1)C1CC=C(C#C[Si](C)(C)C)CC1` (configuration not stated), the Ki on D(3) dopamine receptor [6] worked out at 13 nM; in assay [7], 6900 nM; at D(1A) dopamine receptor, 5800 nM; on D(2) dopamine receptor [8], 670 nM; in [9] it was 8300 nM; at D(2) dopamine receptor [10], 690 nM. Besides, the results for the Ki (in [11]; at D(4) dopamine receptor) were 1900 nM and 1800 nM, respectively.

Take `CCCN(CCCCn1cc(-c2ccc(-c3ccccc3)cc2)nn1)C1CC=C(C#Cc2ccccc2)CC1` (configuration not stated): the inhibition constant (Ki) at D(3) dopamine receptor [6] is 150 nM; in assay [7], 5900 nM; on D(1A) dopamine receptor, 1700 nM; on D(2) dopamine receptor [8], 180 nM; in assay [9], 5700 nM; at D(2) dopamine receptor [10] it was 210 nM. The Ki in assay [11] was 900 nM; on D(4) dopamine receptor it was 1100 nM.
